This is an account of results in patent publication US11041000B2, “Peptide inhibitors of interleukin-23 receptor and their use to treat inflammatory diseases” (priority 2019, dated 2021).

Numbered stars: 1 amine (or outer) side, 2 acyl side, 3 side chain; on linkers, the order of the positions; unused ones are H or OH. Bridge positions count the residues as written; N and C are the ends. Square brackets hold non-standard residues; d marks the D form. Peptide text beside a SMILES is read from it. Trp(7-OMe) = COc1cccc2c(C[C@H](N)C(=O)O)c[nH]c12; His(π-Bom) = N[C@@H](Cc1cncn1COCc1ccccc1)C(=O)O; Trp(7-Me) = Cc1cccc2c(C[C@H](N)C(=O)O)c[nH]c12; Abu(4-yl) = O=C([C@H](CC[*:3])N[*:1])[*:2]; 2Nal = N[C@@H](Cc1ccc2ccccc2c1)C(=O)O; AEF = NCCOc1ccc(C[C@H](N)C(=O)O)cc1; Cit = NC(=O)NCCC[C@H](N)C(=O)O; Pen = CC(C)(S)[C@H](N)C(=O)O; αMeK = C[C@](N)(CCCCN)C(=O)O; Aib = CC(C)(N)C(=O)O; βAla = NCCC(=O)O Bounds are passed on as bounds.

For data set [1], the target named is IL-23R-expressing DB cells (Homo sapiens, UniProt Q5VWK5). As to the kind of experiment: DB cells IL23R pSTAT3 cell assay (pStat3HTRF). The format is cell-based. The following applies: DB cells stimulated with IL-23 0.5 nM, 30 minutes, phospho-STAT3 in cell lysates; read-out: pStat3 HTRF. The text has this:
Human ELISA indicates the IL23-IL23R competitive binding assay described below, Rat ELISA indicates the rat IL-23R competitive binding ELISA assay described below, and pStat3HTRF indicates the DB cells IL-23R pSTAT3 cell assay described below. The peptides depicted in Table E1 are cyclized via a disulfide bridge formed between two Pen residues in these peptides. The peptides depicted in Table E2 are cyclized via a thioether bond between the indicated amino acid residues. Table E2 provides an illustrative structure depicting thioether cyclization, which is indicated in the table by the term “cyclo,” with the cyclic region bracketed immediately following the term “cyclo.” For certain peptides, the residue Abu is present where indicated, whereas in other embodiments, e.g., those related to the non-cyclized form, the Abu may be referred to as a hSer(Cl) or homoSer residue. The petpides depicted in Table E3 are cyclized via a disulfide bridge formed between two Pen residues or a thioether bond between Abu and Cys.
IL-23 plays a central role in supporting and maintaining Th17 differentiation in vivo. This process is thought to be mediated primarily through the Signal Transducer and Activator of Transcription 3 (STAT3), with phosphorylation of STAT3 (to yield pSTAT3) leading to upregulation of RORC and pro-inflammatory IL-17. This cell assay examines the levels of pSTAT3 in IL-23R-expressing DB cells when stimulated with IL-23 in the presence of test compounds. Serial dilutions of test peptides and IL-23 (Humanzyme #HZ-1261) at a final concentration of 0.5 nM, were added to each well in a 96 well tissue culture plate (Corning #CLS3894). DB cells (ATCC #CRL-2289), cultured in RPMI-1640 medium (Thermo Scientific #11875093) supplemented with 10% FBS, were added at 5×10E5 cells/well and incubated for 30 minutes at 37° C. in a 5% CO2 humidified incubator. Changes in phospho-STAT3 levels in the cell lysates were detected using the Cisbio HTRF pSTAT3 (Tyr705) Cellular Assay Kit (Cisbio #62AT3PEH), according to manufacturer's Two Plate Assay protocol.

The nature of data set [2]: Stability in simulated intestinal fluid (SIF). The format is in vitro ADME. The following applies: simulated intestinal fluid with pancreatin, pH 6.8, 37° C., matrix is 100 fold dilution of standard SIF concentration; for half-life at 20 μM: read-out: SIF t½ (converted); for SIF t½: 20 μM.
Data set [3] can be described thus: Stability in human fecal homogenate. The class given is in vitro ADME. The following applies: 20% fecal homogenate (supernatant), pH 6.8, 20% human fecal homogenate, anaerobic, 37° C., read-out: t½: Human Feces anaerobic (converted). As for the experimental part:
(§1) Centrifuged the homogenate at 2800×g for 15 min. The supernatant is taken out and used for incubations. […] The final test compound concentration was 20 μM.

The nature of data set [4]: Stability in cynomolgus monkey fecal homogenate. The class given is in vitro ADME. To be noted: 20% fecal homogenate (supernatant), anaerobic, pH 6.8, 20% cynomolgus monkey fecal homogenate, 37° C., read-out: t½: Monkey Feces anaerobic (converted). The procedure:
as §1

Another data set is described as follows: Stability in rat plasma. The format is in vitro ADME. To be noted: both sexes, SD rat plasma, EDTA, 37° C., read-out: t½: Rat Plasma EDTA (converted).

Chain of IL-23R-expressing DB cells (Q5VWK5 24-629 limits assumed): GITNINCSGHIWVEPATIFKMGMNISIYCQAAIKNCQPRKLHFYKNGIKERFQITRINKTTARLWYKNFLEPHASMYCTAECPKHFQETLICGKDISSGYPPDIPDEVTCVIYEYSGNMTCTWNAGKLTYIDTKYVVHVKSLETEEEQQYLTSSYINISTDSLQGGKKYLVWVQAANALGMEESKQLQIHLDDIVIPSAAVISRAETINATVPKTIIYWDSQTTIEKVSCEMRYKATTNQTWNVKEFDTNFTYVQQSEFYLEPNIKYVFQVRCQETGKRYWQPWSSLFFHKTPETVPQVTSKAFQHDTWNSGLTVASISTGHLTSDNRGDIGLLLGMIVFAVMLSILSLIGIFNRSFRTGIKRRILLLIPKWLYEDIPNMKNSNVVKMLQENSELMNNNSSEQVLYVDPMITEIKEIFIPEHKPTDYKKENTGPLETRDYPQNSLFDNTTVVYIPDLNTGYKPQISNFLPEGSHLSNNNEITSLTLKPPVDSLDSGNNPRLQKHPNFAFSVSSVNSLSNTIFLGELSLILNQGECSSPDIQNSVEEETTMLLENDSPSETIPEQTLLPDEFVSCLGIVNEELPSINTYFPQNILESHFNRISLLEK
Method for Stability in rat plasma: Peptides of interest (20 μM) were incubated with pre-warmed rat plasma (SD rat, mixed gender pooled, EDTA, filtered through 0.22 μm, BioreclamationIVT) at 37° C. […] Quenched samples were stored at 4° C. until the end of the experiment and centrifuged at 4,000 rpm for 10 minutes. The supernatant were diluted 1:1 with deionized water and analyzed using LC-MS. Percentage remaining at each time point was calculated based on the peak area ratio (analyte over internal standard) relative to the initial level at time zero. Half-lives were calculated by fitting to a first-order exponential decay equation using GraphPad.

Regarding `CC(=O)NCCCC[C@H](NC(=O)[C@](C)(CCCCN)NC(=O)[C@H](Cc1ccc2ccccc2c1)NC(=O)[C@H](Cc1ccc(OCCN)cc1)NC(=O)[C@H]1NC(=O)[C@H](CCC(N)=O)NC(=O)[C@H](Cc2c[nH]c3c(C)cccc23)NC(=O)[C@H]([C@@H](C)O)NC(=O)C(C)(C)NC(=O)[C@@H](NC(C)=O)C(C)(C)SSC1(C)C)C(=O)N[C@@H](CC(N)=O)C(=O)NCCC(N)=O` [compound 240] (Ac-[Pen][Aib]T[Trp(7-Me)]Q[Pen][AEF][2Nal][αMeK]K(Ac)N[βAla]-NH2; disulfide 1-6), the IC50 in data set [1] was determined as 17.7 nM. The half-life at 20 μM is 7 h in data set [2], 4 h in data set [3], 3 h in data set [4] (cynomolgus monkey) and 8 h in “Stability in rat plasma”.

`CC(=O)NCCCC[C@@H]1NC(=O)[C@H](Cc2c[nH]c3c(C)cccc23)NC(=O)[C@H]([C@@H](C)O)NC(=O)[C@H](CC(N)=O)NC(=O)[C@@H](NC(C)=O)C(C)(C)SSC(C)(C)[C@@H](C(=O)N[C@@H](Cc2ccc(OCCN)cc2)C(=O)N[C@@H](Cc2ccc3ccccc3c2)C(=O)N[C@@](C)(CCCCN)C(=O)N[C@@H](CCCCNC(C)=O)C(=O)N[C@@H](CC(N)=O)C(=O)N[C@H](Cc2ccccc2)C(N)=O)NC1=O` [compound 258]: the IC50 in data set [1] came to 0.92 nM. Besides, the half-life at 20 μM was 14 h in data set [2], above 24 h in data set [3], above 24 h in data set [4] (cynomolgus monkey) and above 24 h in the data set “Stability in rat plasma”.

Take `CC(=O)N[C@@H]1C(=O)N[C@@H](CC(N)=O)C(=O)N[C@@H]([C@@H](C)O)C(=O)N[C@@H](Cc2c[nH]c3c(C)cccc23)C(=O)N[C@@H](CCCNC(N)=O)C(=O)N[C@H](C(=O)N[C@@H](Cc2ccc(OCCN)cc2)C(=O)N[C@@H](Cc2ccc3ccccc3c2)C(=O)N[C@@](C)(CCCCN)C(=O)N[C@@H](CCCNC(N)=O)C(=O)NCCC(=O)NCCC(N)=O)C(C)(C)SSC1(C)C` [compound 281] (Ac-[Pen]NT[Trp(7-Me)][Cit][Pen][AEF][2Nal][αMeK][Cit][βAla][βAla]-NH2; disulfide 1-6): the IC50 in data set [1] is 17.7 nM. The half-life at 20 μM in data set [2] was 14 h; in data set [3], above 24 h; in data set [4] (cynomolgus monkey) it was above 24 h; in the data set “Stability in rat plasma”, above 24 h.

Take `CC(=O)NCCCC[C@@H]1NC(=O)[C@H](Cc2c[nH]c3c(C)cccc23)NC(=O)[C@H]([C@@H](C)O)NC(=O)[C@H](CC(N)=O)NC(=O)[C@@H](NC(C)=O)C(C)(C)SSC(C)(C)[C@@H](C(=O)N[C@@H](Cc2cncn2COCc2ccccc2)C(=O)N[C@@H](Cc2ccc3ccccc3c2)C(=O)N[C@@](C)(CCCCN)C(=O)N[C@@H](CCCCNC(C)=O)C(=O)N[C@@H](CC(N)=O)C(=O)N[C@H](CC(C)C)C(N)=O)NC1=O` [compound 291] (Ac-[Pen]NT[Trp(7-Me)]K(Ac)[Pen][His(π-Bom)][2Nal][αMeK]K(Ac)N[dL]-NH2; disulfide 1-6): the IC50 in data set [1] is above 1000 nM. The half-life at 20 μM (in data set [3]; in data set [4] (cynomolgus monkey); in “Stability in rat plasma”) was above 24 h each time.

Regarding `COc1cccc2c(C[C@@H]3NC(=O)[C@H]([C@@H](C)O)NC(=O)[C@H](CC(N)=O)NC(=O)[C@@H](NC(C)=O)C(C)(C)SSC(C)(C)[C@@H](C(=O)N[C@@H](Cc4ccc(OCCN)cc4)C(=O)N[C@@H](Cc4ccc5ccccc5c4)C(=O)N[C@@](C)(CCCCN)C(=O)N[C@@H](CCCCNC(C)=O)C(=O)N[C@@H](CC(N)=O)C(=O)N[C@H](CCCCN)C(N)=O)NC(=O)[C@H](CCCNC(N)=O)NC3=O)c[nH]c12` [compound 300] (Ac-[Pen]NT[Trp(7-OMe)][Cit][Pen][AEF][2Nal][αMeK]K(Ac)N[dK]-NH2; disulfide 1-6), in data set [1], the IC50 was above 1000 nM. Moreover, the “SIF t½” value in data set [2] is 24 h. Besides, the half-life at 20 μM (in data set [3]; in data set [4]; in the data set “Stability in rat plasma”) was above 24 h each time.

For `CC(=O)NCCCC[C@H](NC(=O)[C@](C)(CCCCN)NC(=O)[C@H](Cc1ccc2ccccc2c1)NC(=O)[C@H](Cc1ccc(OCCN)cc1)NC(=O)[C@H]1NC(=O)[C@H](CCCCNC(=O)C2CCCCC2)NC(=O)[C@H](Cc2c[nH]c3c(C)cccc23)NC(=O)[C@H]([C@@H](C)O)NC(=O)[C@H](CC(N)=O)NC(=O)[C@@H](NC(C)=O)C(C)(C)SSC1(C)C)C(=O)N[C@@H](CC(N)=O)C(=O)N[C@H](CC(C)C)C(N)=O` [compound 316], the IC50 in data set [1] stood at 5.6 nM. Also, the “SIF t½” value in data set [2] is 24 h. The half-life at 20 μM (in data set [3]; in data set [4]; in the data set “Stability in rat plasma”) was above 24 h in each case.

Consider `CC(=O)NCCCC[C@H](NC(=O)[C@](C)(CCCCN)NC(=O)[C@H](Cc1ccc2ccccc2c1)NC(=O)[C@H](Cc1ccc(OCCN)cc1)NC(=O)[C@H]1NC(=O)[C@H](CCCCNC(=O)C(C)(C)N)NC(=O)[C@H](Cc2c[nH]c3c(C)cccc23)NC(=O)[C@H]([C@@H](C)O)NC(=O)[C@H](CC(N)=O)NC(=O)[C@@H](NC(C)=O)C(C)(C)SSC1(C)C)C(=O)N[C@@H](CC(N)=O)C(=O)N[C@H](CC(C)C)C(N)=O` [compound 322], for which the IC50 in data set [1] came out at 0.648 nM. Further, the “SIF t½” value in data set [2] is 24 h. Further, the half-life at 20 μM (in data set [3]; in data set [4] (cynomolgus monkey); in “Stability in rat plasma”) was above 24 h each time.

Take `CC(=O)NCCCC[C@@H]1NC(=O)[C@H](Cc2c[nH]c3c(C)cccc23)NC(=O)[C@H]([C@@H](C)O)NC(=O)[C@H](CCC(N)=O)NC(=O)[C@@H](NC(=O)[C@@H](CCCNC(=N)N)NC(C)=O)CCSC[C@@H](C(=O)N[C@@H](Cc2ccc(OCCN)cc2)C(=O)N[C@@H](Cc2ccc3ccccc3c2)C(=O)N[C@@](C)(CCCCN)C(=O)N[C@@H](CCCCNC(C)=O)C(=O)N[C@@H](CC(N)=O)C(=O)N[C@H](CC(C)C)C(N)=O)NC1=O` [compound 325] (Ac-[dR][Abu(4-yl)]QT[Trp(7-Me)]K(Ac)C[AEF][2Nal][αMeK]K(Ac)N[dL]-NH2; thioether 2-7): the IC50 in data set [1] turned out to be 4.45 nM. Further, the half-life at 20 μM in data set [2] was 14 h; in data set [3], above 24 h; in data set [4] (cynomolgus monkey), 22 h; in “Stability in rat plasma” it was above 24 h.

With `CC(=O)NCCCC[C@H](NC(=O)[C@](C)(CCCCN)NC(=O)[C@H](Cc1ccc2ccccc2c1)NC(=O)[C@H](Cc1ccc(OCCN)cc1)NC(=O)[C@H]1NC(=O)[C@H](CCCNC(N)=O)NC(=O)[C@H](Cc2c[nH]c3c(C)cccc23)NC(=O)[C@H]([C@@H](C)O)NC(=O)[C@H](CC(N)=O)NC(=O)[C@@H](NC(C)=O)C(C)(C)SSC1(C)C)C(=O)N[C@@H](CC(N)=O)C(=O)NC(C)(C)C(=O)N[C@H](CCCNC(=N)N)C(N)=O` [compound 345] (Ac-[Pen]NT[Trp(7-Me)][Cit][Pen][AEF][2Nal][αMeK]K(Ac)N[Aib][dR]-NH2; disulfide 1-6), in data set [1], the IC50 is 0.639 nM. For the same compound, the half-life at 20 μM is 12 h in data set [2], above 24 h in data set [3], above 24 h in data set [4] and above 24 h in “Stability in rat plasma”.

For the compound `CCCCCCCC(=O)NCCCC[C@H](NC(=O)[C@](C)(CCCCN)NC(=O)[C@H](Cc1ccc2ccccc2c1)NC(=O)[C@H](Cc1ccc(OCCN)cc1)NC(=O)[C@H]1NC(=O)[C@H](CCCCNC(C)=O)NC(=O)[C@H](Cc2c[nH]c3c(C)cccc23)NC(=O)[C@H]([C@@H](C)O)NC(=O)[C@H](CC(N)=O)NC(=O)[C@@H](NC(C)=O)C(C)(C)SSC1(C)C)C(=O)N[C@@H](CC(N)=O)C(=O)N[C@H](CC(C)C)C(N)=O` [compound 358], the IC50 in data set [1] came to 3.03 nM. Besides, the “SIF t½” value in data set [2] was 24 h. In addition, the half-life at 20 μM (in data set [3]; in data set [4]; in the data set “Stability in rat plasma”) was above 24 h in each case.
